From patent US20050202549A1, “Crystal structure” (Pfizer Inc, priority 2001, published 2005)

How the values were obtained:
[1] = biological target: T1, wild-type PDE5 catalytic domain (Homo sapiens, UniProt O76074); assay: X-ray structure of wild-type PDE5 catalytic domain complexed with Sildenafil; details: X-ray structure of wild-type PDE5 complex; binding in the active site, blocking access for the cGMP substrate
T1 construct: Construction and Expression of PDE5 Wild-type Catalytic Domain (E534-N875); made in house; host or cells: baculovirus / insect cells (pFastbac1; Sf-9 for virus stocks, T.ni High5 named for expression)

[2] = biological target: T2, PDE5* (loop-swapped PDE5 catalytic domain) (Homo sapiens, UniProt O76074, C677D/E669N/H670S/H678E/I665L/I680V/INS676N/L675M/M681L/N661S/P671E/Q666I/Q674L/R658P/R667N/S663Q/S668T/Y664F); assay: Soaking of inhibitor into C2 crystal form of PDE5* and X-ray structure determination; format: binding
T2 construct: Construction and Expression of PDE5* (E534-E858) in E. coli; made in house; host or cells: E. coli BL21 (DE3), pET21C
Protocol: Plate-shaped crystals of apo PDE5* obtained according to methods detailed in EXAMPLE 6 were transferred to a 20 μl drop of 0.1M sodium HEPES and 20% Polyethylene glycol 4000 in square microbridges. To this, 1.0 μl of a 20 mg/ml concentration of inhibitor dissolved in DMSO was added. Crystals were then transferred to a solution of 0.1M sodium HEPES pH 7.4, 20% Polyethylene glycol 4000 with 15% glycerol and then frozen during X-ray data collection.
X-ray diffraction data were collected with an RaxisIV image plate detector on an in-house FR-D rotating anode (Rigaku), with Osmic mirrors (MSC). All data were processed using the HKL package (Otwinowski & Minor, 1997).
Refinement was carried out in the resolution range 30-1.5 Å using CNX (Brünger et al., 1998) with the “mlf” maximum likelihood target function. Partial structure factors from a flat bulk-solvent model and anisotropic B-factor correction were supplied throughout the refinement.

(fo-fc) electron density map at the active site region ([2]; PDE5* C2 crystal soaked with ligand, map contoured at 2.5σ, phases prior to incorporation of ligand) | mode of inhibition ([2]; X-ray structure of PDE5* complex, binding in the active site, blocking access for the cGMP substrate) | Structure (SMILES) | mode of inhibition [1]
– | – | CCCc1nn(C)c2c(=O)[nH]c(-c3cc(S(=O)(=O)N4CCN(C)CC4)ccc3OCC)nc12 [Sildenafil, 5-[2-ethoxy-5-(4-methyl-1-piperazinylsulphonyl)phenyl]-1-methyl-3-n-propyl-1,6-dihydro-7H-pyrazolo[4,3-d]pyrimidin-7-one] | competitive
clearly featured peak | competitive | CCCc1nn(C)c2c(=O)[nH]c(-c3ccccc3OCC)nc12 [UK-088,800, 5-(2-ethoxyphenyl)-1-methyl-3-propyl-1,6-dihydro-7H-pyrazolo[4,3-d]pyrimidin-7-one] | –
